Read-outs that look alike come from different tables or passages of the source.
Legend:
[1] = classification of the substance (M+/M−); cited from earlier work
[2] = tested on: rodent; conditions: cited from earlier work
[3] = tested on: liver; conditions: cited from earlier work
[4] = tested on: mRNA expressed from the genes (A) to (D) in rat liver; assay: Behavior of genes (mRNA expression level, oligo-DNA microarray) in rat liver after 28-day oral administration; format: in vivo; conditions: mRNA vs vehicle control group; for Behavior of gene caused by administration of chemical substance, Gene No. 4846 / Behavior of gene caused by administration of chemical substance, Gene No. 2026 / Behavior of gene caused by administration of chemical substance, Gene No. 4218 / Behavior of gene caused by administration of chemical substance, Gene No. 6182 / Behavior of gene caused by administration of chemical substance, Gene No. 5600: gene group (A); for Behavior of gene caused by administration of chemical substance, Gene No. 4846: Unigene No. Rn.144554; for Behavior of gene caused by administration of chemical substance, Gene No. 2026 / Behavior of gene caused by administration of chemical substance, Gene No. 4218: Unigene No. Rn.167075; for Behavior of gene caused by administration of chemical substance, Gene No. 6182: Unigene No. Rn.5834; for Behavior of gene caused by administration of chemical substance, Gene No. 5600: Unigene No. Rn.9836; for Behavior of gene caused by administration of chemical substance, Gene No. 1494 / Behavior of gene caused by administration of chemical substance, Gene No. 2045 / Behavior of gene caused by administration of chemical substance, Gene No. 2203: gene group (B); for Behavior of gene caused by administration of chemical substance, Gene No. 1494: Unigene No. Rn.1430; for Behavior of gene caused by administration of chemical substance, Gene No. 2045: Unigene No. Rn.19329; for Behavior of gene caused by administration of chemical substance, Gene No. 2203: Unigene No. Rn.21240; for Behavior of gene caused by administration of chemical substance, Gene No. 533 / Behavior of gene caused by administration of chemical substance, Gene No. 725 / Behavior of gene caused by administration of chemical substance, Gene No. 1163 / Behavior of gene caused by administration of chemical substance, Gene No. 4973 / Behavior of gene caused by administration of chemical substance, Gene No. 4095 / Behavior of gene caused by administration of chemical substance, Gene No. 1334 / Behavior of gene caused by administration of chemical substance, Gene No. 6620 / Behavior of gene caused by administration of chemical substance, Gene No. 6303 / Behavior of gene caused by administration of chemical substance, Gene No. 5878 / Behavior of gene caused by administration of chemical substance, Gene No. 1131 / Behavior of gene caused by administration of chemical substance, Gene No. 1562 / Behavior of gene caused by administration of chemical substance, Gene No. 1741 / Behavior of gene caused by administration of chemical substance, Gene No. 893 / Behavior of gene caused by administration of chemical substance, Gene No. 6026 / Behavior of gene caused by administration of chemical substance, Gene No. 154 / Behavior of gene caused by administration of chemical substance, Gene No. 1993 / Behavior of gene caused by administration of chemical substance, Gene No. 813 / Behavior of gene caused by administration of chemical substance, Gene No. 2494 / Behavior of gene caused by administration of chemical substance, Gene No. 2546 / Behavior of gene caused by administration of chemical substance, Gene No. 3776 / Behavior of gene caused by administration of chemical substance, Gene No. 3929 / Behavior of gene caused by administration of chemical substance, Gene No. 1119 / Behavior of gene caused by administration of chemical substance, Gene No. 6742 / Behavior of gene caused by administration of chemical substance, Gene No. 5634: gene group (C); for Behavior of gene caused by administration of chemical substance, Gene No. 533: Unigene No. Rn.106184; for Behavior of gene caused by administration of chemical substance, Gene No. 725: Unigene No. Rn.108075; for Behavior of gene caused by administration of chemical substance, Gene No. 1163: Unigene No. Rn.11766; for Behavior of gene caused by administration of chemical substance, Gene No. 4973: Unigene No. Rn.118529; for Behavior of gene caused by administration of chemical substance, Gene No. 4095: Unigene No. Rn.119024; for Behavior of gene caused by administration of chemical substance, Gene No. 1334 / Behavior of gene caused by administration of chemical substance, Gene No. 6620: Unigene No. Rn.120914; for Behavior of gene caused by administration of chemical substance, Gene No. 6303: Unigene No. Rn.123063; for Behavior of gene caused by administration of chemical substance, Gene No. 5878: Unigene No. Rn.143213; for Behavior of gene caused by administration of chemical substance, Gene No. 1131: Unigene No. Rn.144946; for Behavior of gene caused by administration of chemical substance, Gene No. 1562: Unigene No. Rn.14744; for Behavior of gene caused by administration of chemical substance, Gene No. 1741: Unigene No. Rn.1647; for Behavior of gene caused by administration of chemical substance, Gene No. 893: Unigene No. Rn.164817; for Behavior of gene caused by administration of chemical substance, Gene No. 6026: Unigene No. Rn.167685; for Behavior of gene caused by administration of chemical substance, Gene No. 154: Unigene No. Rn.185941; for Behavior of gene caused by administration of chemical substance, Gene No. 1993: Unigene No. Rn.18728; for Behavior of gene caused by administration of chemical substance, Gene No. 813: Unigene No. Rn.201760; for Behavior of gene caused by administration of chemical substance, Gene No. 2494: Unigene No. Rn.23969; for Behavior of gene caused by administration of chemical substance, Gene No. 2546: Unigene No. Rn.24561; for Behavior of gene caused by administration of chemical substance, Gene No. 3776: Unigene No. Rn.43232; for Behavior of gene caused by administration of chemical substance, Gene No. 3929: Unigene No. Rn.4620; for Behavior of gene caused by administration of chemical substance, Gene No. 1119: Unigene No. Rn.9757; for Behavior of gene caused by administration of chemical substance, Gene No. 6742: Unigene No. Rn.9779; for Behavior of gene caused by administration of chemical substance, Gene No. 5634: Unigene No. Rn.9862; for Behavior of gene caused by administration of chemical substance, Gene No. 5726: gene group (D), Unigene No. Rn.9939
Outline: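 Liver mRNA measured by oligo-DNA microarray after 28 days of once-daily oral gavage in 5-week-old male F344 rats (n=4 per group), with vehicle controls given equal solvent volume. Significance threshold: 1.5-fold up or down versus control, with changes opposite in direction to other carcinogens counted as not significant.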

[5] = classification of the substance (C+/C−)
[6] = classification of the substance (Cr+/Cr−)

Row | SMILES | Mutagenicity by Ames test [1] | Behavior of gene caused by administration of chemical substance, Gene No. 4846 [4] | Behavior of gene caused by administration of chemical substance, Gene No. 2026 [4] | Behavior of gene caused by administration of chemical substance, Gene No. 4218 [4] | Behavior of gene caused by administration of chemical substance, Gene No. 6182 [4] | Behavior of gene caused by administration of chemical substance, Gene No. 5600 [4] | Behavior of gene caused by administration of chemical substance, Gene No. 1494 [4] | Behavior of gene caused by administration of chemical substance, Gene No. 2045 [4] | Behavior of gene caused by administration of chemical substance, Gene No. 2203 [4] | Behavior of gene caused by administration of chemical substance, Gene No. 533 [4] | Behavior of gene caused by administration of chemical substance, Gene No. 725 [4] | Behavior of gene caused by administration of chemical substance, Gene No. 1163 [4] | Behavior of gene caused by administration of chemical substance, Gene No. 4973 [4] | Behavior of gene caused by administration of chemical substance, Gene No. 4095 [4] | Behavior of gene caused by administration of chemical substance, Gene No. 1334 [4] | Behavior of gene caused by administration of chemical substance, Gene No. 6620 [4] | Behavior of gene caused by administration of chemical substance, Gene No. 6303 [4] | Behavior of gene caused by administration of chemical substance, Gene No. 5878 [4] | Behavior of gene caused by administration of chemical substance, Gene No. 1131 [4] | Behavior of gene caused by administration of chemical substance, Gene No. 1562 [4] | other results
1 | Cn1c(N)nc2ncc(-c3ccccc3)cc21 [TS045, 2-amino-1-methyl-6-phenylimidazo[4,5-b]-pyridine] | M+ | − | − | − | − | − | − | + | + | − | − | − | − | − | − | − | − | − | − | − | Carcinogenicity [2, 5]: C+; Liver carcinogenicity [3, 6]: Cr−; Behavior of gene caused by administration of chemical substance, Gene No. 1741 [4]: −; Behavior of gene caused by administration of chemical substance, Gene No. 893 [4]: −; Behavior of gene caused by administration of chemical substance, Gene No. 6026 [4]: −; Behavior of gene caused by administration of chemical substance, Gene No. 154 [4]: −; Behavior of gene caused by administration of chemical substance, Gene No. 1993 [4]: −; Behavior of gene caused by administration of chemical substance, Gene No. 813 [4]: −; Behavior of gene caused by administration of chemical substance, Gene No. 2494 [4]: +; Behavior of gene caused by administration of chemical substance, Gene No. 2546 [4]: −; Behavior of gene caused by administration of chemical substance, Gene No. 3776 [4]: −; Behavior of gene caused by administration of chemical substance, Gene No. 3929 [4]: −; Behavior of gene caused by administration of chemical substance, Gene No. 1119 [4]: −; Behavior of gene caused by administration of chemical substance, Gene No. 6742 [4]: −; Behavior of gene caused by administration of chemical substance, Gene No. 5634 [4]: −; Behavior of gene caused by administration of chemical substance, Gene No. 5726 [4]: +
2 | Cc1c2ccccc2c(C)c2c1ccc1ccccc12 [TS047, 7,12-Dimethylbenz [a]anthracene] | M+ | − | − | − | − | − | − | − | − | − | + | + | − | − | − | − | − | − | − | − | Carcinogenicity ([2]; in vivo): C+; Liver carcinogenicity ([3]; in vivo): Cr−; Behavior of gene caused by administration of chemical substance, Gene No. 1741 [4]: −; Behavior of gene caused by administration of chemical substance, Gene No. 893 [4]: −; Behavior of gene caused by administration of chemical substance, Gene No. 6026 [4]: −; Behavior of gene caused by administration of chemical substance, Gene No. 154 [4]: −; Behavior of gene caused by administration of chemical substance, Gene No. 1993 [4]: −; Behavior of gene caused by administration of chemical substance, Gene No. 813 [4]: −; Behavior of gene caused by administration of chemical substance, Gene No. 2494 [4]: −; Behavior of gene caused by administration of chemical substance, Gene No. 2546 [4]: −; Behavior of gene caused by administration of chemical substance, Gene No. 3776 [4]: −; Behavior of gene caused by administration of chemical substance, Gene No. 3929 [4]: −; Behavior of gene caused by administration of chemical substance, Gene No. 1119 [4]: −; Behavior of gene caused by administration of chemical substance, Gene No. 6742 [4]: −; Behavior of gene caused by administration of chemical substance, Gene No. 5634 [4]: −; Behavior of gene caused by administration of chemical substance, Gene No. 5726 [4]: +
3 | Cc1ccc2cc3c(ccc4ccccc43)c3c2c1CC3 [TS048, 3-Methylcholanthrene] | M+ | − | + | − | − | − | − | − | − | − | − | − | − | − | − | − | − | − | − | − | Carcinogenicity [2, 5]: C+; Liver carcinogenicity [3, 6]: Cr−; Behavior of gene caused by administration of chemical substance, Gene No. 1741 [4]: −; Behavior of gene caused by administration of chemical substance, Gene No. 893 [4]: −; Behavior of gene caused by administration of chemical substance, Gene No. 6026 [4]: −; Behavior of gene caused by administration of chemical substance, Gene No. 154 [4]: −; Behavior of gene caused by administration of chemical substance, Gene No. 1993 [4]: −; Behavior of gene caused by administration of chemical substance, Gene No. 813 [4]: −; Behavior of gene caused by administration of chemical substance, Gene No. 2494 [4]: −; Behavior of gene caused by administration of chemical substance, Gene No. 2546 [4]: −; Behavior of gene caused by administration of chemical substance, Gene No. 3776 [4]: −; Behavior of gene caused by administration of chemical substance, Gene No. 3929 [4]: −; Behavior of gene caused by administration of chemical substance, Gene No. 1119 [4]: −; Behavior of gene caused by administration of chemical substance, Gene No. 6742 [4]: −; Behavior of gene caused by administration of chemical substance, Gene No. 5634 [4]: +; Behavior of gene caused by administration of chemical substance, Gene No. 5726 [4]: +

Source: patent US20110039721A1, “METHOD FOR PREDICTION ABOUT CARCINOGENICITY OF SUBSTANCE IN RODENT” (Chemicals Evaluation and Research Institute, priority 2007, published 2011)
